Measurements taken from PMC8652888, “Angiogenesis, Anti-Tumor, and Anti-Metastatic Activity of Novel α-Substituted Hetero-Aromatic Chalcone Hybrids as Inhibitors of Microtubule Polymerization” (Frontiers in Chemistry, 2021).
“And” between values parts separate entries of the source, which are not always exact repeats. Equal values may be shown once. Read-outs that look alike come from different tables or passages of the source.

Legend:
[1] = test system: U937; test: Antiproliferative activity, CCK-8 assay; type: cell-based; details: Homo sapiens, U-937
Experimental: (§1) The synthesized compounds were first evaluated for their cytotoxic effect on MCF-7 (human breast adenocarcinoma), U937 (histiocytic lymphoma cancer), HepG2 (human liver cancer) cells, and MGC-803 (human gastric cancer) using the SRB and CCK-8 assay. As reference compounds CA-4 and colchicine were included.
(§2) The primary tumor cells were purchased from a professional biomedical company. First, the primary tumor cells were incubated in a cell culture incubator at 37°C and 5% CO2. After the cell fusion reached 85%–95%, subculture was performed, and the tumor cells obtained at this time were used for subsequent related experiments. The CCK-8 method was used to inhibit the proliferation of U937 tumor cells, and the SRB method was used to inhibit the proliferation of MCF7 and HepG2 tumor cells.
The cells in the logarithmic growth phase were seeded in a 96-well plate at 8,000/well, and the drug-containing medium and cell suspension were added to the well. Three wells were added with the blank medium as the blank group. The 96-well plate was incubated for 72 h in a 37°C, 5% CO2 incubator. The 10 μl of CCK-8 dye solution was added to each well, and the incubation continued for 3–4 h.

[2] = test system: MCF-7; test: Antiproliferative activity, SRB assay; type: cell-based, human;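 note: proliferation of MCF7 cells quantified by sulforhodamine B staining, with optical density read at 560 nm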
[3] = test system: HepG2; test: Antiproliferative activity, SRB assay; type: cell-based, human; details: Homo sapiens, HepG2
Experimental: as §1, §2
Cells were distributed into 96-well plates with a density of 3 × 10^3–4 × 10^3 cells per well and incubated for 24 h in a 5% CO2 incubator at 37°C, followed by treatment with study compounds at different concentrations at 37°C for 72 h. One hundred microliters of 10% (w/v) trichloroacetic acid was added to each well, fixed at 4°C for 30 min, and dried at 65°C. Then 100 μl of 0.4% SRB was added to each well and stained on a shaker for 20 min at room temperature. The excess dye solution was washed with newly prepared 1% glacial acetic acid and dried at 65°C. One hundred fifty microliters of 10 mM unbuffered Trisbase was added to each well of the plate and shaken for 5 min to dissolve the dye. The microplate reader measured the optical density (OD) at a wavelength of 560 nm.

[4] = test system: MGC-803; test: Antiproliferative activity (SRB and CCK-8 assay); type: cell-based; details: Homo sapiens
Description: as §1

[5] = test system: taxol-resistant MCF7 cells (MCF7/Tax); test: Growth inhibition of taxol-resistant cells; type: cell-based, human
[6] = test system: normal liver LO2 cells; test: Growth inhibition of normal cells; type: cell-based, human
[7] = 72 h, triplicate, mean ± SD, read-out: IC50 ± SD, U937
[8] = Homo sapiens, MCF7, 72 h, 72 h, triplicate, mean ± SD, read-out: IC50 ± SD, MCF-7
[9] = 72 h, triplicate, mean ± SD, read-out: IC50 ± SD, HepG2
[10] = triplicate, mean ± SD, read-out: IC50 ± SD, MGC-803
[11] = Homo sapiens, MCF7, supplement raw data, read-out: IC50/MCF
[12] = supplement raw data, read-out: IC50/MGC
[13] = supplement raw data, read-out: IC50/U937
[14] = Homo sapiens, MCF7, Table 3, triplicate, read-out: IC50 ± SD, MCF7
[15] = Homo sapiens, MCF7, three single determinations, read-out: MCF-7 (raw data of table 3, IC50)
[16] = Homo sapiens, MCF7, three single determinations, read-out: MCF-7/Taxol (raw data of table 3, IC50)
[17] = Homo sapiens, MCF7, triplicate, read-out: IC50 ± SD, MCF7/Tax
[18] = Homo sapiens, L02, three single determinations, read-out: L02 (raw data of table 3, IC50)
[19] = Homo sapiens, L02, triplicate, read-out: IC50 ± SD, LO2

Row | SMILES | IC50 [1, 7] [nM] | IC50 [2, 8] [nM] | IC50 [3, 9] [nM] | IC50 [4, 10] [nM] | melting point [°C] | IC50 [2, 11] [nM] | IC50 [4, 12] [nM] | other results
1 | COc1cc(C(=O)/C=C/c2cc3ccccc3o2)cc(OC)c1OC [Compound 6h, (E)-3-(benzofuran-2-yl)-1-(3,4,5-trimethoxyphenyl)prop-2-en-1-one] | > 20000 | 14600 ± 368 | > 20000 | 8780 ± 309 | 79.5 to 80.3 | – | – | –
2 | COc1cc(C(=O)/C=C/c2ccc3oc4ccccc4c3c2)cc(OC)c1OC [Compound 6l, (E)-3-[dibenzo (b,d)furan-2-yl]1-(3,4,5-trimethoxyphenyl)prop-2-en-1-one] | 2080 ± 252 | 810 ± 68 | 3270 ± 65 | 326 ± 16 | 56.5 to 57.6 | 810 | 326 | –
3 | CC(=O)O[C@H]1C(=O)[C@@]2(C)[C@H]([C@H](OC(=O)c3ccccc3)[C@]3(O)C[C@H](OC(=O)[C@H](O)[C@@H](NC(=O)c4ccccc4)c4ccccc4)C(C)=C1C3(C)C)[C@]1(OC(C)=O)CO[C@@H]1C[C@@H]2O [Taxol, paclitaxel] | – | – | – | – | – | – | – | IC50 [2, 14]: 24.6 ± 3.2 nM; IC50 [2, 15]: 20.6 nM; IC50 ([2]; three single determinations, listed as TaxolL, read-out: MCF-7 (raw data of table 3, IC50)): 28.3 nM and 24.9 nM; Resistant fold ([5]; (IC50 MCF7/Tax)/(IC50 MCF7)): 13.7; IC50 [5, 16]: 334 nM; IC50 [5, 17]: 336 ± 18 nM; IC50 ([5]; three single determinations, listed as TaxolL, read-out: MCF-7/Taxol (raw data of table 3, IC50)): 315 nM and 359 nM; Selectivity ratio ([6]; (IC50 human normal cells LO2)/(IC50 MCF7)): 1.3; IC50 [6, 18]: 32.1 nM; IC50 [6, 19]: 32.4 ± 1.9 nM; IC50 ([6]; three single determinations, listed as TaxolL, read-out: L02 (raw data of table 3, IC50)): 34.5 nM and 30.6 nM
4 | COc1cc(C(=O)/C=C/c2cccc3c2OCO3)cc(OC)c1OC [Compound 6s, (E)-3-(benzo[d][1,3]dioxol-4-yl)-1-(3,4,5-trimethoxyphenyl)prop-2-en-1-one] | > 20000 | 1230 ± 133 | 3320 ± 229 | 393 ± 17 | 138.4 to 140.3 | – | 393 | –
5 | COc1cc(C(=O)/C=C/c2ccc3occc3c2)cc(OC)c1OC [Compound 6m, (E)-3-(benzofuran-5-yl)-1-(3,4,5-trimethoxyphenyl)prop-2-en-1-one] | 6170 ± 1640 | 6460 ± 103 | > 20000 | 3180 ± 62 | 110.5 to 115.3 | – | – | –
6 | COc1cc(C(=O)/C=C/c2ccc3sc4ccccc4c3c2)cc(OC)c1OC [Compound 6q, (E)-3[dibenzo (b,d)thiophen-2-yl]-1-(3,4,5-trimethoxyphenyl)prop-2-en-1-one] | 6380 ± 148 | 5090 ± 569 | 10600 ± 457 | 3220 ± 284 | 118.7 to 119.2 | – | – | –
7 | COc1cc(C(=O)/C=C/c2nc3ccccc3n2C)cc(OC)c1OC [Compound 6r, (E)-3-[1-methyl-1H-benzo (d)imidazol-2-yl]-1-(3,4,5-trimethoxyphenyl)prop-2-en-1-one] | 1280 ± 71 | 5190 ± 465 | 4670 ± 295 | 2030 ± 225 | 123.5 to 125.2 | – | – | –
8 | COc1cc(C(=O)/C=C/c2ccc3c(c2)CCO3)cc(OC)c1OC [Compound 6n, (E)-3-(2,3-dihydrobenzofuran-5-yl)-1-(3,4,5-trimethoxyphenyl)prop-2-en-1-one] | > 20000 | 3130 ± 415 | > 20000 | 851 ± 63 | 107.5 to 110.3 | – | 851 | –
9 | COc1ccc(/C=C\c2cc(OC)c(OC)c(OC)c2)cc1O [CA-4, reference compound] | 0.3 ± 0.1 | 11.4 ± 0.2 | 7.1 ± 0.9 | – | – | 11.4 ± 0.2 | – | IC50 [1, 13]: 0.326 ± 0.1 nM; IC50 [2, 14]: 11.4 ± 0.2 nM; IC50 [2, 15]: 11.8 nM; IC50 ([3]; supplement raw data, read-out: IC50/Hepg2): 7.09 ± 0.9 nM; IC50 [5, 16]: 20.2 nM; IC50 [5, 17]: 21.2 ± 0.6 nM; IC50 ([5]; three single determinations, read-out: MCF-7/Taxol (raw data of table 3, IC50)): 22.1 nM and 21.3 nM; IC50 [6, 18]: 14.1 nM; IC50 [6, 19]: 15.2 ± 0.5 nM; IC50 ([6]; three single determinations, read-out: L02 (raw data of table 3, IC50)): 16.2 nM and 15.3 nM
10 | COc1cc(C(=O)/C=C/c2c(-c3ccccc3)[nH]c3ccccc23)cc(OC)c1OC [Compound 6c, (E)-3-(2-phenyl-1H-indol-3-yl)-1-(3,4,5-trimethoxyphenyl)prop-2-en-1-one] | 601 ± 267 | 313 ± 17 | 1080 ± 92 | 104 ± 1 | 60.2 to 61.7 | 313 | – | IC50 [1, 13]: 601 nM

Second part, led by results:

Row | IC50 [1, 7] [nM] | IC50 [2, 8] [nM] | IC50 [3, 9] [nM] | IC50 [4, 10] [nM] | melting point [°C] | IC50 [2, 11] [nM] | IC50 [4, 12] [nM] | SMILES | other results
11 | 786 ± 346 | 988 ± 6 | 4820 ± 102 | 395 ± 15 | 117.5 to 120.8 | 988 | 395 | COc1cc(C(=O)/C=C/c2coc3ccccc23)cc(OC)c1OC [Compound 6j, (E)-3-(benzofuran-3-yl)-1-(3,4,5-trimethoxyphenyl)prop-2-en-1-one] | IC50 [1, 13]: 786 nM
12 | > 20000 | 281 ± 22 | 14110 ± 117 | 190 ± 2 | 236.7 to 238.2 | 281 | 190 | COc1cc(C(=O)/C=C/c2c(C)[nH]c3ccccc23)cc(OC)c1OC [Compound 6b, (E)-3-(2-methyl-1H-indol-3-yl)-1-(3,4,5-trimethoxyphenyl)prop-2-en-1-one] | –
13 | > 20000 | 380 ± 20 | 18100 ± 295 | 71 ± 2 | 216.4 to 217.6 | 380 | 70.6 | COc1cc(C(=O)/C=C/c2c[nH]c3cc(Br)ccc23)cc(OC)c1OC [Compound 6g, (E)-3-(6-bromo-1H-indol-3-yl)-1-(3,4,5-trimethoxyphenyl)prop-2-en-1-one] | –
14 | > 20000 | 2070 ± 43 | 8380 ± 585 | 1380 ± 86 | 115.5 to 116.9 | – | – | COc1cc(C(=O)/C=C/c2cc3ccccc3s2)cc(OC)c1OC [Compound 6o, (E)-3-(benzo[b]thiophen-2-yl)-1-(3,4,5-trimethoxyphenyl)prop-2-en-1-one] | –
15 | > 20000 | 283 ± 11 | 1380 ± 136 | 76 ± 1 | 95.5 to 96.4 | 283 | 75.7 | COc1cc(C(=O)/C=C/c2csc3ccccc23)cc(OC)c1OC [Compound 6p, (E)-3-(benzo[b]thiophen-3-yl)-1-(3,4,5-trimethoxyphenyl)prop-2-en-1-one] | –
16 | > 20000 | > 20000 | > 20000 | – | 239.7 to 241 | – | – | COC(=O)c1ccc2c(/C=C(\C#N)C(=O)c3cc(OC)c(OC)c(OC)c3)c[nH]c2c1 [Compound 8f, methyl(E)-3-(2-cyano-3-oxo-3-(3,4,5-trimethoxyphenyl)prop-1-en-1-yl)-1H-indole-6-carboxylate] | –
17 | 8580 ± 178 | > 20000 | > 20000 | – | 176.7 to 178.2 | – | – | COC(=O)c1cccc2[nH]cc(/C=C(\C#N)C(=O)c3cc(OC)c(OC)c(OC)c3)c12 [Compound 8d, methyl(E)-3-(2-cyano-3-oxo-3-(3,4,5-trimethoxyphenyl)prop-1-en-1-yl)-1H-indole-4-carboxylate] | –
18 | 1620 ± 190 | 13700 ± 965 | 193 ± 1 | – | 229.3 to 231.7 | – | – | COC(=O)c1ccc2c(/C=C(\C)C(=O)c3cc(OC)c(OC)c(OC)c3)c[nH]c2c1 [Compound 7f, methyl(E)-3-(2-methyl-3-oxo-3-(3,4,5-trimethoxyphenyl)prop-1-en-1-yl)-1H-indole-6-carboxylate] | –
19 | 3080 ± 433 | 584 ± 16 | 10800 ± 629 | – | 152.7 to 153.2 | – | – | COc1cc(C(=O)/C(C)=C/c2c(C)[nH]c3ccccc23)cc(OC)c1OC [Compound 7b, (E)-2-methyl-3-(2-methyl-1H-indol-3-yl)-1-(3,4,5-trimethoxyphenyl)prop-2-en-1-one] | IC50 ([2]; Homo sapiens, MCF7, supplement raw data of table 2, read-out: IC50(MCF-7)): 584 nM
